# Publication PMC4926326, “Synthesis, Biological Activity, and Apoptotic Properties of NO-Donor/Enmein-Type ent-Kauranoid Hybrids” (International Journal of Molecular Sciences, 2016)
# Read-outs that look alike come from different tables or passages of the source.
# Columns and labels:
# [1] = tested on: Monilia albicans (ATCC 10231); assay: Antifungal assay, microbroth dilution MIC; format: cell-based; conditions: Candida albicans, read-out: MIC M. albicans
# From the text: (§1) The antibacterial activity of NO donor/enmein-type ent-kauranoid hybrids 9a–i against the Gram-negative bacterium Escherichia coli (ATCC 25922), Gram-positive bacterium Staphylococcus aureus (ATCC 29213) and Bacillus subtilis (CMCC 63501), and the fungus Monilia albicans (ATCC 10231) was first disclosed and summarized in Table 1. […] Thus, the introduction of NO-donor substituent groups at the 14-position of enmein-type 6,7-seco-ent-kauranoid could improve antimicrobial activity against S. aureus and B. subtilis.
# (§2) The minimal inhibitory concentrations (MICs) were carried out by microbroth dilution method described by the Clinical Laboratory Standards Institute. A stock solution of all the target compounds was prepared with DMSO-medium (1:2), and then graded quantities of the test compounds were diluted with medium. The specified concentration suspension of fungus and bacterium contained approximately 10^3, and 10^5 CFU/mL was added into microtitration plates. The inoculated 96-well plates were incubated at 35 °C for 18 h. MIC was defined as the lowest concentrations that prevented visible growth of the bacteria.
# [2] = tested on: human normal liver cells L-02; assay: MTT assay on normal cells; format: cell-based; conditions: 72 h, read-out: IC50 L-02
# Description: (§3) The antiproliferative activity of 9a–i against four human cancer cell lines K562 leukemia cell line, MGC-803 gastric cancer cell line, CaEs-17 esophageal cancer cell line, and Bel-7402 hepatoma cell line, and human normal liver cells L-02 was evaluated by MTT assay (Table 2).
# (§4) MTT assay was developed to monitor mammalian cell survival and proliferation in vitro [32]. CaEs-17 cells (K562, Bel-7402 and MGC-803 cells) from American Type Culture Collection (ATCC, Manassas, VA, USA) were cultivated in RPMI-1640 medium supplemented with 5% fetal bovine serum (v/v), 100 U/mL penicillin, and […] streptomycin. Cells (5 × 10^4 cell/mL) at the log phase of their growth cycle were added to each well of a 96-well plate (100 µL/well) and incubated for 24 h at 37 °C in a humidified atmosphere of 5% CO2. Then, cells were treated with or without test compounds in different concentrations. After 72 h, 5 mg/mL MTT solution (20 µL per well) was added. Cells were incubated at 37 °C. After 4 h, MTT solution was removed and DMSO was added to each well (150 µL). Ten minutes later at room temperature, the optical density (OD) values were measured at the wavelength of 490 nm on a Microplate Reader NO. 550 (BIO-RAD Instruments Inc., Hercules, CA, USA). In this experiment, 10 µg/mL of Taxol was used as the positive control and 0.1% DMSO was used as the negative reference.
# [3] = tested on: CaEs-17 esophageal cancer cell line; assay: MTT antiproliferative assay; format: cell-based; conditions: Homo sapiens, read-out: IC50 CaEs-17
# Description: as §3, §4
# [4] = tested on: Bacillus subtilis (CMCC 63501); assay: Antibacterial assay, microbroth dilution MIC; format: cell-based; conditions: for MIC: Bacillus subtilis, read-out: MIC B. subtilis
# From the text: as §1, §2
# [5] = tested on: Escherichia coli (ATCC 25922); assay: Antibacterial assay, microbroth dilution MIC; format: cell-based; conditions: for MIC: Escherichia coli, read-out: MIC E. coli
# From the text: as §1, §2
# [6] = tested on: Staphylococcus aureus (ATCC 29213); assay: Antibacterial assay, microbroth dilution MIC; format: cell-based; conditions: for MIC: Staphylococcus aureus, read-out: MIC S. aureus
# From the text: as §1, §2
# K562 leukemia cell line = assay: MTT antiproliferative assay; format: cell-based, human; conditions: Homo sapiens, K562, 72 h, read-out: IC50 K562
# Description: as §3, §4
# [7] = tested on: Bel-7402 hepatoma cell line; assay: MTT antiproliferative assay; format: cell-based, human; conditions: for IC50: Homo sapiens, read-out: IC50 Bel-7402; for SI (selectivity index): SI = IC50, L-02/IC50, Bel-7402
# Description: as §3, §4
# [8] = tested on: MGC-803 gastric cancer cell line; assay: MTT antiproliferative assay; format: cell-based, human; conditions: Homo sapiens, MGC-803, 72 h, read-out: IC50 MGC-803
# Description: as §3, §4
# [9] = MTT, normal liver cells, mean ± SD of three experiments
# [10] = CaEs17, MTT, 72 h, mean ± SD of three experiments
# [11] = MTT, 72 h, mean ± SD of three experiments
# [12] = Bel-7402, MTT, 72 h, mean ± SD of three experiments
Structure (SMILES),"MIC ([1]; ATCC10231, 35 °C, 18 h) [mg/L]","IC50 [2, 9] [µM]","IC50 [3, 10] [µM]","MIC ([4]; CMCC63501, 35 °C, 18 h) [mg/L]","MIC ([5]; ATCC25922, 35 °C, 18 h) [mg/L]","MIC ([6]; ATCC29213, 35 °C, 18 h) [mg/L]",melting point [°C],IC50 (K562 leukemia cell line; [11]) [µM],"IC50 [7, 12] [µM]",SI (selectivity index) [7],"IC50 [8, 11] [µM]",also measured
C=C1C(=O)[C@@]23C(=O)O[C@H]4CCC(C)(C)[C@H]5[C@H](O)OC[C@@]45[C@@H]2CC[C@@H]1[C@H]3OC(=O)CCCC(=O)OCCOc1no[n+]([O-])c1S(=O)(=O)c1ccccc1 [Compound 9b],> 100,16.7 ± 0.17,4.83 ± 0.3,2,> 100,4,88 to 89,2.31 ± 0.21,1.2 ± 0.08,13.9,1.62 ± 0.08,–
"CC(=O)O[C@H]1C(=O)[C@@]2(C)[C@H]([C@H](OC(=O)c3ccccc3)[C@]3(O)C[C@H](OC(=O)[C@H](O)[C@@H](NC(=O)c4ccccc4)c4ccccc4)C(C)=C1C3(C)C)[C@]1(OC(C)=O)CO[C@@H]1C[C@@H]2O [Taxol, reference compound]",–,3.73 ± 0.17,0.43 ± 0.03,–,–,–,–,0.41 ± 0.02,1.89 ± 0.09,1.9,0.85 ± 0.06,–
C=C1C(=O)[C@@]23C(=O)O[C@H]4CCC(C)(C)[C@H]5[C@H](O)OC[C@@]45[C@@H]2CC[C@@H]1[C@H]3OC(=O)CCC(=O)OCCOc1no[n+]([O-])c1S(=O)(=O)c1ccccc1 [Compound 9a],> 100,10.4 ± 0.61,5.12 ± 0.42,64,> 100,16,92 to 94,2.47 ± 0.16,1.33 ± 0.1,7.7,1.83 ± 0.16,–
C=C1C(=O)[C@@]23C(=O)O[C@H]4CCC(C)(C)[C@H]5[C@H](O)OC[C@@]45[C@@H]2CC[C@@H]1[C@H]3OC(=O)c1ccccc1C(=O)OCCOc1no[n+]([O-])c1S(=O)(=O)c1ccccc1 [Compound 9c],> 100,19.87 ± 0.18,3.76 ± 0.37,4,> 100,8,137 to 139,1.93 ± 0.1,0.83 ± 0.06,23.9,1.34 ± 0.13,–
"O=C(N[C@H](CO)[C@H](O)c1ccc([N+](=O)[O-])cc1)C(Cl)Cl [Chloromycetin, reference compound]",–,–,–,–,–,–,–,–,–,–,–,"MIC B. subtilis ([4]; 35 °C, 18 h): 8 mg/L; MIC E. coli ([5]; 35 °C, 18 h): 4 mg/L; MIC S. aureus ([6]; 35 °C, 18 h): 4 mg/L"
C=C1C(=O)[C@@]23C(=O)O[C@H]4CCC(C)(C)[C@H]5[C@H](O)OC[C@@]45[C@@H]2CC[C@@H]1[C@H]3OC(=O)CCC(=O)OCCCOc1no[n+]([O-])c1S(=O)(=O)c1ccccc1 [Compound 9d],> 100,13.6 ± 1.31,4.98 ± 0.42,2,> 100,4,110 to 112,2.15 ± 0.12,1.23 ± 0.08,11.0,1.5 ± 0.1,–
C=C1C(=O)[C@@]23C(=O)O[C@H]4CCC(C)(C)[C@H]5[C@H](O)OC[C@@]45[C@@H]2CC[C@@H]1[C@H]3OC(=O)CCCC(=O)OCCCOc1no[n+]([O-])c1S(=O)(=O)c1ccccc1 [Compound 9e],> 100,17.2 ± 0.77,4.27 ± 0.35,16,> 100,16,82 to 84,1.92 ± 0.09,0.92 ± 0.05,18.6,1.29 ± 0.12,–
"OC(Cn1cncn1)(Cn1cncn1)c1ccc(F)cc1F [Fluconazole, reference compound]",4,–,–,–,–,–,–,–,–,–,–,–
C=C1C(=O)[C@@]23C(=O)O[C@H]4CCC(C)(C)[C@H]5[C@H](O)OC[C@@]45[C@@H]2CC[C@@H]1[C@H]3O [Compound 8],–,–,–,–,–,–,–,–,–,–,–,"MIC ([1]; ATCC10231, 18 h): > 100 mg/L; IC50 [2]: 24.4 ± 1.59 µM; IC50 ([3]; CaEs17, 72 h): 30.8 ± 2.09 µM; MIC ([4]; CMCC63501, 18 h): > 100 mg/L; MIC ([5]; ATCC25922, 18 h): > 100 mg/L; MIC ([6]; ATCC29213, 18 h): > 100 mg/L; IC50 (K562 leukemia cell line): 8.11 ± 0.76 µM; IC50 ([7]; Bel-7402, 72 h): 33 ± 2.19 µM; IC50 [8]: 14.2 ± 1.22 µM"
C=C1C(=O)[C@@]23C(=O)O[C@H]4CCC(C)(C)[C@H]5[C@H](O)OC[C@@]45[C@@H]2CC[C@@H]1[C@H]3OC(=O)CCCC(=O)OCCCCOc1no[n+]([O-])c1S(=O)(=O)c1ccccc1 [Compound 9h],> 100,12.1 ± 1.08,4.68 ± 0.31,16,> 100,16,78 to 80,2.11 ± 0.16,1.08 ± 0.05,11.1,1.49 ± 0.11,–
"C=C1C(=O)[C@]23[C@H](O)[C@H]1CC[C@H]2[C@@]12CO[C@]3(O)[C@@H](O)[C@@H]1C(C)(C)CC[C@@H]2O [Compound 7, oridonin, reference compound]",> 100,18.3 ± 0.81,11 ± 1.02,32,> 100,32,–,4.76 ± 0.32,7.48 ± 0.53,2.4,5.69 ± 0.39,–
C=C1C(=O)[C@@]23C(=O)O[C@H]4CCC(C)(C)[C@H]5[C@H](O)OC[C@@]45[C@@H]2CC[C@@H]1[C@H]3OC(=O)CCC(=O)OCCCCOc1no[n+]([O-])c1S(=O)(=O)c1ccccc1 [Compound 9g],> 100,11.6 ± 0.39,5.13 ± 0.22,16,> 100,16,85 to 87,2.26 ± 0.08,1.27 ± 0.11,9.1,1.43 ± 0.08,–
